Test results from patent publication US9573947B2, “Salt of pyrazoloquinoline derivative, and crystal thereof” (Eisai R&D Management Co., Ltd., priority 2013, dated 2017).

Key:
[1] = system: cerebrospinal fluid cGMP; assay: Effect on rodent cerebrospinal fluid cGMP; format: in vivo, Long-Evans (LE) male rats; details: LE rats, 10 mg/kg, 1 hour post-administration; relative to vehicle group; compound synthesized according to Reference Example 1
Description: Test compounds were administered to ICR male mice (CHARLES RIVER LABORATORIES JAPAN, INC.), Sprague-Dawley (SD) male rats (CHARLES RIVER LABORATORIES JAPAN, INC.) or Long-Evans (LE) male rats (Institute for Animal Reproduction (general incorporated foundation)), and then cerebrospinal fluid was collected under pentobarbital anesthesia and stored at −20° C. Measurement of cGMP in cerebrospinal fluid was performed according to the acetylation EIA procedure of cGMP EIA kit (GE Healthcare) or the non-acetylation procedure of cGMP EIA kit (Cayman Chemical).

[2] = system: hippocampal cGMP; assay: Effect on rodent hippocampal cGMP; format: in vivo, LE male rats; details: LE rats, 10 mg/kg, 1 hour post-administration; relative to vehicle group; compound synthesized according to Reference Example 1
Description: Test compounds were administered to SD male rats (CHARLES RIVER LABORATORIES JAPAN, INC.) or LE male rats (Institute for Animal Reproduction (foundation)). Then a microwave treatment was performed under pentobarbital anesthesia, and the hippocampus were isolated, subjected to measurement of their wet weights, then frozen in liquid nitrogen and stored at −80° C. In the measurement of cGMP in the hippocampus, a 0.5 M perchloric acid/1 mM EDTA solution was added so that the wet weight would constitute 5% (w/v), and the mixture was homogenized. After the homogenization, the homogenate was centrifuged (10000 rpm, 15 min), and the supernatant was collected. The collected supernatant was neutralized with a 2 M potassium hydrogen carbonate solution and centrifuged (13000 rpm, 10 min) The cGMP concentration in the supernatant was measured according to the non-acetylation EIA procedure of cGMP EIA kit (GE Healthcare). The results were calculated using the following formula as an increase (C) in the amount of cGMP in the test compound-administered group (B) relative to the amount of cGMP in the vehicle-administered group (A). cGMP increase(C)=[(B)−(A)]/(A)×100(%) In the case of the compound (I) synthesized according to Reference Example 1, the cGMP increase was 58% at 1 hour post-administration of a dose of 10 mg/kg to LE rats.

[3] = Dissolution test in fasted state simulated intestinal fluid; format: physicochemical; details: fasted state simulated intestinal fluid pH 6.5, 37° C., 50 rpm, in terms of compound (I)
Description: Each of compound (I) (50 mg), the compound of Example 1 (30 mg) and the compound of Example 2 (30 mg) was filled into a hydroxypropyl methylcellulose capsule, together with an equal weight of lactose hydrate. A 708-DS from Agilent Technologies was equipped with small stirring paddles and small vessels, and used as a dissolution test apparatus. Each drug-filled capsule was added to 50 ml of fasted state simulated intestinal fluid (a phosphate buffer pH 6.5 containing 0.75 mM lecithin and 3 mM sodium taurocholate) which had been warmed to 37° C. The drug was dissolved by rotating the stirring paddle at a speed of 50 rpm. The dissolved solution was sampled over time and the drug concentrations were measured by HPLC. Such dissolution tests using fasted state simulated intestinal fluid are often used to evaluate the dissolution and absorption characteristics of drugs (e.g., Takano et al., “Oral absorption of poorly water-soluble drugs: computer simulation of fraction absorbed in humans from a miniscale dissolution test”, Pharm Res., vol. 23, pp. 1144-1156, 2006). The results were shown in Table 1 and the graph in FIG. 12.

[4] = Test on oral absorption characteristics in dogs; format: in vivo, beagle dogs; details: oral capsule, 100 mg in terms of the free form; for AREA UNDER PLASMA CONCENTRATION-TIME CURVE, MEAN: mean of 4 beagle dogs

## COc1ncc(C)c(-c2ccc3c(c2)[nH]c(=O)c2cnn([C@H]4CCOC4)c23)c1C [compound (I), (S)-7-(2-methoxy-3,5-dimethylpyridin-4-yl)-1-(tetrahydrofuran-3-yl)-1H-pyrazolo[4,3-c]quinolin-4(5H)-one]
[1]
  cGMP increase in cerebrospinal fluid: 274%
[2]
  cGMP increase in hippocampus: 58%
[3]; 6 minutes
  CONCENTRATION (dissolution): 100 ng/mL
[3]; 10 minutes
  CONCENTRATION (dissolution): 300 ng/mL
[3]; 15 minutes
  CONCENTRATION (dissolution): 1800 ng/mL
[3]; 20 minutes
  CONCENTRATION (dissolution): 3200 ng/mL
[3]; 30 minutes
  CONCENTRATION (dissolution): 4400 ng/mL
[3]; 60 minutes
  CONCENTRATION (dissolution): 5000 ng/mL
[3]; 90 minutes
  CONCENTRATION (dissolution): 5200 ng/mL
[3]; 120 minutes
  CONCENTRATION (dissolution): 5100 ng/mL
[3]; 180 minutes
  CONCENTRATION (dissolution): 5200 ng/mL
[3]; 240 minutes
  CONCENTRATION (dissolution): 5400 ng/mL
[4]; Dog 1, 0.25 hours
  PLASMA CONCENTRATION: BQL
[4]; Dog 1, 0.5 hours
  PLASMA CONCENTRATION: 5 ng/mL
[4]; Dog 1, 1 hour
  PLASMA CONCENTRATION: 55 ng/mL
[4]; Dog 1, 2 hours
  PLASMA CONCENTRATION: 94 ng/mL
[4]; Dog 1, 4 hours
  PLASMA CONCENTRATION: 64 ng/mL
[4]; Dog 1, 6 hours
  PLASMA CONCENTRATION: 45 ng/mL
[4]; Dog 1, 8 hours
  PLASMA CONCENTRATION: 43 ng/mL
[4]; Dog 1, 24 hours
  PLASMA CONCENTRATION: 234 ng/mL
[4]; Dog 1
  AREA UNDER PLASMA CONCENTRATION-TIME CURVE: 2660 ng·h/mL
[4]; Dog 2, 0.25 hours
  PLASMA CONCENTRATION: BQL
[4]; Dog 2, 0.5 hours
  PLASMA CONCENTRATION: 29 ng/mL
[4]; Dog 2, 1 hour
  PLASMA CONCENTRATION: 67 ng/mL
[4]; Dog 2, 2 hours
  PLASMA CONCENTRATION: 61 ng/mL
[4]; Dog 2, 4 hours
  PLASMA CONCENTRATION: 51 ng/mL
[4]; Dog 2, 6 hours
  PLASMA CONCENTRATION: 45 ng/mL
[4]; Dog 2, 8 hours
  PLASMA CONCENTRATION: 41 ng/mL
[4]; Dog 2, 24 hours
  PLASMA CONCENTRATION: 7 ng/mL
[4]; Dog 2
  AREA UNDER PLASMA CONCENTRATION-TIME CURVE: 770 ng·h/mL
[4]; Dog 3, 0.25 hours
  PLASMA CONCENTRATION: BQL
[4]; Dog 3, 0.5 hours
  PLASMA CONCENTRATION: 34 ng/mL
[4]; Dog 3, 1 hour
  PLASMA CONCENTRATION: 142 ng/mL
[4]; Dog 3, 2 hours
  PLASMA CONCENTRATION: 133 ng/mL
[4]; Dog 3, 4 hours
  PLASMA CONCENTRATION: 104 ng/mL
[4]; Dog 3, 6 hours
  PLASMA CONCENTRATION: 77 ng/mL
[4]; Dog 3, 24 hours
  PLASMA CONCENTRATION: 9 ng/mL
[4]; Dog 3
  AREA UNDER PLASMA CONCENTRATION-TIME CURVE: 1430 ng·h/mL
[4]; Dog 4, 0.25 hours
  PLASMA CONCENTRATION: BQL
[4]; Dog 4, 0.5 hours
  PLASMA CONCENTRATION: BQL
[4]; Dog 4, 1 hour
  PLASMA CONCENTRATION: 17 ng/mL
[4]; Dog 4, 24 hours
  PLASMA CONCENTRATION: 28 ng/mL
[4]; Dog 4
  AREA UNDER PLASMA CONCENTRATION-TIME CURVE: 2680 ng·h/mL
[4]; beagle, dog, plasma, po, 100 mg, Dog 3, 8 hours
  concentration at 8 h: 74 ng/mL
[4]; beagle, dog, plasma, po, 100 mg, Dog 4, 2 hours
  concentration at 2 h: 227 ng/mL
[4]; beagle, dog, plasma, po, 100 mg, Dog 4, 4 hours
  concentration at 4 h: 208 ng/mL
[4]; beagle, dog, plasma, po, 100 mg, Dog 4, 6 hours
  concentration at 6 h: 164 ng/mL
[4]; beagle, dog, plasma, po, 100 mg, Dog 4, 8 hours
  concentration at 8 h: 151 ng/mL
[4]; beagle, dog, plasma, po, 100 mg, mean of dogs, 24 hours
  concentration at 24 h: 69 ng/mL
[4]
  AREA UNDER PLASMA CONCENTRATION-TIME CURVE, MEAN: 1880 ± 950 ng·h/mL
[4]; listed as COMPOUND (I)
  AREA UNDER PLASMA CONCENTRATION-TIME CURVE, MEAN: 1880 ng·h/mL
[4]; mean of dogs, 0.5 hours
  PLASMA CONCENTRATION MEAN: 23 ng/mL
[4]; mean of dogs, 1 hour
  PLASMA CONCENTRATION MEAN: 70 ng/mL
[4]; mean of dogs, 2 hours
  PLASMA CONCENTRATION MEAN: 129 ng/mL
[4]; mean of dogs, 4 hours
  PLASMA CONCENTRATION MEAN: 106 ng/mL
[4]; mean of dogs, 6 hours
  PLASMA CONCENTRATION MEAN: 83 ng/mL
[4]; mean of dogs, 8 hours
  PLASMA CONCENTRATION MEAN: 77 ng/mL
